Reference: article PMC3617406 (Molecular pharmaceutics, 2013)
Entries after “also recorded” stand apart in the source; their conditions may differ. Like-named read-outs stand apart in the source and are kept apart here.

How the values were obtained:
human ASBT = molecular target: T1, human ASBT (Homo sapiens, UniProt Q12908); format: cell-based; conditions: for potency estimated from few doses: read-out: Estimated Ki for ASBT; for taurocholate uptake into ASBT-MDCK cells, percent of control: single drug concentration, same as in NTCP screening (typically 100 μM); for ASBT inhibitor or non-inhibitor: inhibitor = Ki below 300 μM
T1 sequence (Q12908 1-348): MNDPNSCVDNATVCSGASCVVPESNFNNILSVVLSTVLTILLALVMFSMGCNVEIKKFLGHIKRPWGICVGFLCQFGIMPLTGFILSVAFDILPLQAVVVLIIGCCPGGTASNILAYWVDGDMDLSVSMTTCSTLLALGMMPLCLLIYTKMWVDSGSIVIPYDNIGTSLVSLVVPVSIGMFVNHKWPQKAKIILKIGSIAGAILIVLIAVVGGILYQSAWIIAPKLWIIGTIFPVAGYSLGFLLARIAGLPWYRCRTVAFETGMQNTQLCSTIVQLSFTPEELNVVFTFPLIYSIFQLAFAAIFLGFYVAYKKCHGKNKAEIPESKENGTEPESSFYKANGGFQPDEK

human NTCP [1] = molecular target: T2, human NTCP (Homo sapiens, UniProt Q14973); format: cell-based; conditions: for NTCP inhibitor or non-inhibitor: inhibitor = Ki less than 300 μM; for potency estimated from few doses: read-out: Estimated Ki for NTCP
T2 sequence (Q14973 1-349): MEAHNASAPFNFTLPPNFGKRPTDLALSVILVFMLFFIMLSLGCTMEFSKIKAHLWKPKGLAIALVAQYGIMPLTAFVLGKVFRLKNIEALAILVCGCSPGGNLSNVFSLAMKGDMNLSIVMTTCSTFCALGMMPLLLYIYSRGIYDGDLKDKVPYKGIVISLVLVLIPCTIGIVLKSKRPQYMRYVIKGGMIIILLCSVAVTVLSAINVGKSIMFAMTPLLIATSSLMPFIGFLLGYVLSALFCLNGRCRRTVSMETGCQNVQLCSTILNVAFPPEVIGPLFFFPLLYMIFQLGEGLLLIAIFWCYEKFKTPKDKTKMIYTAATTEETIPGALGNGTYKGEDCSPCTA

human NTCP [2] = molecular target: T2, human NTCP; format: cell-based
Cytotoxicity study = conditions: dog, ASBT-MDCK cells
human NTCP [3] = molecular target: T2, human NTCP; assay: Taurocholate uptake kinetics into NTCP-HEK293 cells; conditions: Figure S1

SMILES | potency estimated from few doses (human ASBT) | taurocholate uptake into ASBT-MDCK cells, percent of control (human ASBT) | NTCP inhibitor or non-inhibitor (human NTCP [1]) | potency estimated from few doses (human NTCP [1]) | Ki (human NTCP [2]) | further results
CCCC1O[C@@H]2C[C@H]3[C@@H]4CCC5=CC(=O)C=C[C@]5(C)[C@H]4[C@@H](O)C[C@]3(C)[C@]2(C(=O)CO)O1 (some centres unmarked) [Budesonide] | 62.6 ± 15 µM | below 50% | inhibited NTCP | 264 ± 94 µM | 220 ± 45 µM | –
CCOc1nc2cccc(C(=O)O)c2n1Cc1ccc(-c2ccccc2-c2nnn[nH]2)cc1 [Candesartan] | 67.6 ± 30 µM | – | inhibited NTCP | 145 ± 44 µM | 233 ± 37 µM | –
COc1ccc([C@@H]2Sc3ccccc3N(CCN(C)C)C(=O)[C@@H]2OC(C)=O)cc1 [Diltiazem] | 237 ± 21 µM | – | – | 460 ± 232 µM | 599 ± 212 µM | –
COc1cc2nc(N3CCN(C(=O)C4COc5ccccc5O4)CC3)nc(N)c2cc1OC (centres unmarked) [Doxazosin] | 20.9 ± 7.3 µM | – | inhibited NTCP | 41.2 ± 7.1 µM | 35.3 ± 5.4 µM | –
CC(C)OC(=O)C(C)(C)Oc1ccc(C(=O)c2ccc(Cl)cc2)cc1 [Fenofibrate] | 121 ± 33 µM | 64.7% | inhibited NTCP | 211 ± 60 µM | 129 ± 20 µM | viability at 10 min, 100 μM (Cytotoxicity study): 79.2%
COc1ccc2c(c1)c(CC(=O)O)c(C)n2C(=O)c1ccc(Cl)cc1 [Indomethacin] | 31.3 ± 7.7 µM | below 50% | NTCP inhibitors | 141 ± 14 µM | 173 ± 24 µM | –
CC(=O)N1CCN(c2ccc(OCC3COC(Cn4ccnc4)(c4ccc(Cl)cc4Cl)O3)cc2)CC1 (centres unmarked) [Ketoconazole] | 61.9 ± 27 µM | below 50% | NTCP inhibitors | 98.8 ± 12 µM | 202 µM | ASBT inhibitor or non-inhibitor (human ASBT): ASBT inhibitors
CC(C(=O)O)c1cccc(C(=O)c2ccccc2)c1 (centres unmarked) [Ketoprofen] | 480 ± 609 µM | – | – | 361 ± 178 µM | 321 ± 57 µM | –
C[C@H]1C[C@@H]2[C@H]([C@@H](O)C[C@@]3(C)[C@H]2CC[C@]3(O)C(=O)CO)[C@@]2(C)C=CC(=O)C=C12 [Methylprednisolone] | > 100 µM | – | NTCP inhibitors; also recorded: inhibited NTCP but not ASBT | 255 ± 53 µM | 238 ± 33 µM | ASBT inhibitor or non-inhibitor (human ASBT): inhibited NTCP but not ASBT; fold more potent NTCP inhibition than ASBT inhibition (human NTCP [1]; Ki values of Table 4 and 5): ≥ 10 fold
CC(C)[C@H]1CC[C@H](C(=O)N[C@H](Cc2ccccc2)C(=O)O)CC1 [Nateglinide] | 77 ± 16 µM | – | inhibited NTCP | 111 ± 7 µM | 200 ± 32 µM | –
CCc1nn(CCCN2CCN(c3cccc(Cl)c3)CC2)c(=O)n1CCOc1ccccc1 [Nefazodone] | 30.8 ± 3.6 µM | below 50% | NTCP inhibitors | 100 ± 8 µM | 126 ± 20 µM | –
CCCN(CCC)S(=O)(=O)c1ccc(C(=O)O)cc1 [Probenecid] | 425 ± 155 µM | – | – | 435 ± 114 µM | 544 ± 217 µM | –
CN1CCN(CCCN2c3ccccc3Sc3ccc(Cl)cc32)CC1 [Prochlorperazine] | 27.4 ± 4.6 µM | below 50% | NTCP inhibitors | 280 ± 37 µM | 209 ± 27 µM | –
COC(=O)[C@H]1[C@H]2C[C@@H]3c4[nH]c5cc(OC)ccc5c4CCN3C[C@H]2C[C@@H](OC(=O)c2cc(OC)c(OC)c(OC)c2)[C@@H]1OC [Reserpine] | 21.6 ± 2.9 µM | – | inhibited human NTCP | 89.1 ± 65 µM | – | NTCP inhibitor or non-inhibitor (human NTCP [1]; listed as reserpine): inhibited NTCP
CCCN(CCC)CCc1cccc2c1CC(=O)N2 [Ropinirole] | 30.3 ± 11 µM | below 50% | – | > 100 µM | – | –
Nc1ccc(S(N)(=O)=O)cc1 [Sulfanilamide] | 194 ± 24 µM | – | inhibited NTCP | 250 ± 50 µM | – | –
O=C1C(CC[S+]([O-])c2ccccc2)C(=O)N(c2ccccc2)N1c1ccccc1 (centres unmarked) [Sulfinpyrazone] | 529 ± 600 µM | – | – | 1660 ± 2870 µM | – | –
CN1CCN(CC/C=C2/c3ccccc3Sc3ccc(S(=O)(=O)N(C)C)cc32)CC1 [Thiothixene] | > 100 µM | – | – | > 100 µM | – | –
Nc1nc(N)c2nc(-c3ccccc3)c(N)nc2n1 [Triamterene] | 110 ± 3 µM | – | – | 411 ± 139 µM | – | –
CCCCC(=O)N(Cc1ccc(-c2ccccc2-c2nnn[nH]2)cc1)[C@H](C(=O)O)C(C)C [Valsartan] | 1260 µM | – | did not inhibit NTCP | > 100 µM | – | viability at 10 min, 100 μM (Cytotoxicity study): 77.9%
CC(=O)CC(c1ccccc1)c1c(O)c2ccccc2oc1=O (centres unmarked) [Warfarin] | 97.4 ± 26 µM | – | – | > 100 µM | – | –
COC(=O)[C@@H]1[C@H]2C[C@H]3c4[nH]c5ccccc5c4CCN3C[C@@H]2CC[C@@H]1O [Yohimbine] | 377 ± 442 µM | – | – | > 100 µM | – | –
C[C@H](CCC(=O)NCCS(=O)(=O)O)[C@H]1CC[C@H]2[C@@H]3[C@H](O)C[C@@H]4C[C@H](O)CC[C@]4(C)[C@H]3C[C@H](O)[C@]12C [taurocholate, Taurocholate] | – | – | – | – | – | Kt (taurocholate Michaelis-Menten constant) (human NTCP [3]): 22.7(±3.4) μM; Vmax (human NTCP [3]): 1.80(±0.03) pmol/sec/cm^2; passive permeability Pp (human NTCP [3]): 1.27(±0.03)x10^−6 cm/sec
